Experimental findings from ChEMBL document CHEMBL2046380, “Synthesis and structure-activity relationship of disubstituted benzamides as a novel class of antimalarial agents” (Bioorg Med Chem Lett, 2012) are described below.

A value given as a limit tells only on which side of the number the result lay.

Assay [1] concerns Plasmodium falciparum. Briefly: Antimalarial activity against chloroquine-sensitive Plasmodium falciparum 3D7 incubated for 72 hrs by DNA staining based MAR3D7 growth inhibition assay. The format is functional, organism-based. The note with it: 3D7, 72 h.
A further assay has as its system HepG2. Briefly: Cytotoxicity against human HepG2 cells after 72 hrs by […] CellTiterGlo reagent assay. The format is cell-based. The following applies: HepG2, 72 h.
Another assay relates to Raji. Briefly: Cytotoxicity against human Raji cells after 72 hrs by […] CellTiterGlo reagent assay. The class given is cell-based.
The test system of assay [2] is Plasmodium falciparum. Briefly: Antimalarial activity against […] incubated for 72 hrs by DNA staining based MARK1 growth inhibition assay. The class given is functional, organism-based.
For a further assay, the system named is BJ. Kind of assay: Cytotoxicity against human BJ cells after 72 hrs by […] CellTiterGlo reagent assay. The format is cell-based.
Another assay relates to HEK293. Kind of assay: Cytotoxicity against human HEK293 cells after 72 hrs by […] CellTiterGlo reagent assay. The class given is cell-based. The note with it: HEK293, 72 h.

For `CCOC(=O)CCCCCOc1cccc(CN(C(=O)c2ccc(-c3cccc(NC(C)=O)c3)cc2)C(C)C)c1`, the EC50 is > 15 µM with Plasmodium falciparum [1]; > 26 µM with HepG2; > 26 µM in the assay on Raji; > 15 µM with Plasmodium falciparum [2]; > 26 µM in the assay with BJ; > 26 µM in the assay on HEK293.
Regarding `C=CCCN(CCc1ccc(OC)c(OC)c1)C(=O)CC(C)=O`, the EC50 with Plasmodium falciparum [1] is > 7.51 µM; in the assay with HepG2, > 13 µM; in the assay on Raji, > 13 µM; in the assay with Plasmodium falciparum [2], > 7.51 µM; in the assay on BJ, > 13 µM; in the assay with HEK293, > 13 µM.
Take `CC(C)N(Cc1cccc(OCCCCCC(=O)O)c1)C(=O)c1ccc(-c2cccc(C(F)(F)F)c2)cc1`: the EC50 in the assay on Plasmodium falciparum [1] is > 15 µM; with HepG2 it was > 26 µM; in the assay on Raji, > 26 µM; in the assay with Plasmodium falciparum [2], > 15 µM; with BJ, > 26 µM; in the assay with HEK293 it was > 26 µM.
On to `CC(C)N(Cc1cccc(OCCCCCC(=O)O)c1)C(=O)c1ccc(-c2ccc3[nH]ccc3c2)cc1`, for which the EC50 in the assay on Plasmodium falciparum [1] is > 15 µM; with HepG2 it was > 26 µM; in the assay on Raji, > 26 µM; in the assay on Plasmodium falciparum [2], > 15 µM; with BJ it was > 26 µM; with HEK293, > 26 µM.
As for `CCOC(=O)CCCCCOc1cccc(CN(C(=O)c2ccc(-c3cccc4ccccc34)cc2)C(C)C)c1`, the EC50 in the assay on Plasmodium falciparum [1] is > 15 µM; in the assay with HepG2 it was > 26 µM; in the assay with Raji, > 26 µM; in the assay on Plasmodium falciparum [2], > 15 µM; in the assay with BJ, > 26 µM; in the assay with HEK293 it was > 26 µM.
`CCOC(=O)CCCCCOc1cccc(CN(C(=O)c2ccc(-c3cccc(C(C)=O)c3)cc2)C(C)C)c1`: the EC50 in the assay with Plasmodium falciparum [1] is > 1.5 µM; in the assay on HepG2 it was > 26 µM; in the assay with Raji, > 26 µM; in the assay on Plasmodium falciparum [2], > 15 µM; in the assay on BJ, > 26 µM; with HEK293, > 26 µM.
As to `CC(C)N(Cc1cccc(OCCCCCC(=O)O)c1)C(=O)c1ccc(-c2ccoc2)cc1`, the EC50 in the assay with Plasmodium falciparum [1] was > 15 µM; in the assay with HepG2, > 26 µM; in the assay with Raji it was > 26 µM; in the assay on Plasmodium falciparum [2], > 15 µM; in the assay on BJ, > 26 µM; with HEK293 it was > 26 µM.
Turning to `CCOC(=O)CCCCCOc1cccc(CN(C(=O)c2ccc(-c3ccncc3)cc2)C(C)C)c1`, the EC50 with Plasmodium falciparum [1] is < 0.0008 µM; in the assay on HepG2, > 26 µM; in the assay with Raji it was > 26 µM; in the assay with Plasmodium falciparum [2], 0.0008 µM; in the assay on BJ, > 26 µM; in the assay with HEK293, > 26 µM.
As for `CCOC(=O)CCCCCOc1ccc(CN(C(=O)c2ccc(-c3ccc4c(c3)OCO4)cc2)C(C)C)cc1`, the EC50 with Plasmodium falciparum [1] was > 15 µM; in the assay with HepG2 it was > 26 µM; in the assay with Raji, > 26 µM; with Plasmodium falciparum [2], > 15 µM; in the assay with BJ it was > 26 µM; with HEK293, > 26 µM.
Consider `CC(C)(C)OC(=O)NCC(OC(=O)C(O)CO)c1ccc2c(c1)OCO2` (stereo unspecified), for which the EC50 with Plasmodium falciparum [1] was > 7.51 µM; in the assay on HepG2, > 13 µM; in the assay with Raji, > 13 µM; in the assay on Plasmodium falciparum [2], > 7.51 µM; with BJ, > 13 µM; in the assay with HEK293 it was > 13 µM.
With `CC(C)N(Cc1cccc(OCCCCCC(=O)O)c1)C(=O)c1ccc(-c2cccc(Oc3ccccc3)c2)cc1`, the EC50 in the assay on Plasmodium falciparum [1] was > 10.4 µM; in the assay on HepG2, > 18.8 µM; with Raji, > 18.8 µM; in the assay on Plasmodium falciparum [2], > 10.4 µM; in the assay with BJ, > 18.8 µM; in the assay on HEK293 it was > 18.8 µM.
On to `CC(C)N(C(=O)c1ccc(-c2ccc3c(c2)OCO3)cc1)[C@H](C)c1ccccc1`, for which the half-maximal effective concentration (EC50) in the assay on Plasmodium falciparum [1] is > 15 µM; with HepG2, > 26 µM; with Raji, > 26 µM; with Plasmodium falciparum [2] it was > 15 µM; in the assay with BJ, > 26 µM; in the assay with HEK293, > 26 µM.
For `CCOC(=O)CCCCCOc1cccc(CN(C(=O)c2ccc(Br)cc2)C(C)C)c1`, the EC50 with Plasmodium falciparum [1] was > 15 µM; in the assay on HepG2 it was > 26 µM; in the assay with Raji, > 26 µM; with Plasmodium falciparum [2], > 15 µM; with BJ it was > 26 µM; in the assay on HEK293, > 26 µM.
`CCOC(=O)CCCCCOc1cccc(CN(C(=O)c2ccc(-c3cccc(O)c3)cc2)C(C)C)c1`: the EC50 with Plasmodium falciparum [1] was > 15 µM; in the assay on HepG2, > 26 µM; in the assay with Raji it was > 26 µM; with Plasmodium falciparum [2] it was > 15 µM; in the assay on BJ, > 26 µM; in the assay with HEK293 it was > 26 µM.
Take `CC(C)N(Cc1cccc(OCCCCCC(=O)O)c1)C(=O)c1ccc(-c2c[nH]c3ccccc23)cc1`: the EC50 in the assay with Plasmodium falciparum [1] is > 15 µM; in the assay on HepG2, > 26 µM; in the assay on Raji, > 26 µM; in the assay on Plasmodium falciparum [2], > 15 µM; in the assay with BJ, > 26 µM; in the assay with HEK293 it was > 26 µM.
`O=C(O)c1cc(-c2cccs2)nc2ccccc12`: the EC50 is 0.664 µM in the assay on Plasmodium falciparum [1]; > 26 µM with HepG2; > 26 µM in the assay on Raji; 0.822 µM in the assay with Plasmodium falciparum [2]; > 26 µM in the assay on BJ; > 26 µM with HEK293.
For `CCOC(=O)/C=C1\NCCc2cc3c(cc21)OCO3`, the EC50 in the assay on Plasmodium falciparum [1] is > 7.51 µM; in the assay with HepG2 it was > 13 µM; in the assay with Raji, > 13 µM; with Plasmodium falciparum [2], > 7.51 µM; in the assay with BJ, > 13 µM; with HEK293, > 13 µM.
Turning to `CCOC(=O)CCCCCOc1cccc(CN(C(=O)c2ccc(-c3cccc(N(C)C)c3)cc2)C(C)C)c1`, the EC50 was > 15 µM with Plasmodium falciparum [1]; > 26 µM in the assay on HepG2; > 26 µM in the assay with Raji; > 15 µM with Plasmodium falciparum [2]; > 26 µM in the assay with BJ; > 26 µM in the assay with HEK293.
Consider `O=C(Nc1ccc2c(c1)OCO2)c1cc(-c2cccs2)nc2ccccc12`, for which the EC50 in the assay with Plasmodium falciparum [1] is > 15 µM; in the assay on HepG2, > 26 µM; in the assay on Raji, > 26 µM; with Plasmodium falciparum [2], > 15 µM; with BJ, > 26 µM; with HEK293, > 26 µM.
With `CCOC(=O)CCCCCOc1cccc(CN(C(=O)c2ccc(-c3cccc(F)c3)cc2)C(C)C)c1`, the EC50 with Plasmodium falciparum [1] is > 15 µM; in the assay on HepG2, > 26 µM; with Raji, > 26 µM; in the assay on Plasmodium falciparum [2], > 15 µM; with BJ, > 26 µM; in the assay on HEK293 it was > 26 µM.
As for `CCOC(=O)CCCCCOc1cccc(CN(C(=O)c2ccc(-c3ccc(Cl)c(Cl)c3)cc2)C(C)C)c1`, the EC50 was > 15 µM with Plasmodium falciparum [1]; > 26 µM in the assay on HepG2; > 26 µM in the assay on Raji; > 15 µM in the assay on Plasmodium falciparum [2]; > 26 µM with BJ; > 26 µM in the assay with HEK293.
Consider `CC(C)N(Cc1cccc(OCCCCCC(=O)O)c1)C(=O)c1ccc(-c2cccc(Cl)c2)cc1`, for which the concentration giving a half-maximal response (EC50) in the assay on Plasmodium falciparum [1] is > 12.1 µM; with HepG2, > 21.9 µM; in the assay on Raji, > 21.9 µM; in the assay with Plasmodium falciparum [2], > 12.1 µM; in the assay on BJ it was > 21.9 µM; with HEK293, > 21.9 µM.
Consider `CC(C)N(Cc1cccc(OCCCCCC(=O)O)c1)C(=O)c1ccc(-c2cccc(S(C)(=O)=O)c2)cc1`, for which the EC50 with Plasmodium falciparum [1] was > 15 µM; in the assay with HepG2 it was > 26 µM; in the assay with Raji it was > 26 µM; in the assay with Plasmodium falciparum [2], > 15 µM; in the assay on BJ, > 26 µM; in the assay with HEK293, > 26 µM.
`CCOC(=O)CCCCCOc1cccc(CN(C(=O)c2ccc(-c3cccc(S(C)(=O)=O)c3)cc2)C(C)C)c1`: the EC50 in the assay with Plasmodium falciparum [1] is > 15 µM; in the assay on HepG2, > 26 µM; in the assay on Raji, > 26 µM; in the assay on Plasmodium falciparum [2] it was > 15 µM; with BJ, > 26 µM; with HEK293, > 26 µM.
As to `C=CCCC1=NCCc2cc(OC)c(OC)cc21`, the EC50 was > 7.51 µM with Plasmodium falciparum [1]; > 13 µM in the assay on HepG2; > 13 µM in the assay on Raji; > 7.51 µM in the assay on Plasmodium falciparum [2]; > 13 µM in the assay on BJ; > 13 µM in the assay on HEK293.
Regarding `CCOC(=O)CCCCCOc1cccc(CN(C(=O)c2ccc(-c3cccc(OC(C)C)c3)cc2)C(C)C)c1`, the EC50 in the assay on Plasmodium falciparum [1] is > 15 µM; with HepG2, > 26 µM; in the assay with Raji, > 26 µM; in the assay with Plasmodium falciparum [2], > 15 µM; with BJ, > 26 µM; in the assay on HEK293, > 26 µM.
With `CCOC(=O)CCCCCOc1ccc(CNC(C)C)cc1`, the EC50 in the assay with Plasmodium falciparum [1] is > 15 µM; in the assay with HepG2 it was > 26 µM; with Raji, > 26 µM; in the assay on Plasmodium falciparum [2], > 15 µM; with BJ, > 26 µM; in the assay on HEK293 it was > 26 µM.
In the case of `CC(C)N(Cc1cccc(OCCCCCC(=O)O)c1)C(=O)c1ccc(-c2ccncc2)cc1`, the EC50 in the assay with Plasmodium falciparum [1] was 0.567 µM; with HepG2, > 26 µM; in the assay with Raji, > 26 µM; in the assay with Plasmodium falciparum [2] it was 0.52 µM; with BJ it was > 26 µM; in the assay on HEK293, > 26 µM.
As to `CCOc1cccc(-c2ccc(C(=O)N(Cc3cccc(OCCCCCC(=O)O)c3)C(C)C)cc2)c1`, the EC50 with Plasmodium falciparum [1] is > 11.5 µM; in the assay on HepG2, > 20.9 µM; with Raji it was > 20.9 µM; in the assay on Plasmodium falciparum [2] it was > 11.5 µM; with BJ, > 20.9 µM; in the assay on HEK293, > 20.9 µM.
As to `CCOC(=O)CCCCCOc1cccc(CN(C(=O)c2ccc(-c3cccc(-c4ccccc4)c3)cc2)C(C)C)c1`, the EC50 with Plasmodium falciparum [1] is > 15 µM; with HepG2, > 26 µM; in the assay with Raji it was > 26 µM; in the assay with Plasmodium falciparum [2], > 15 µM; in the assay on BJ, > 26 µM; in the assay on HEK293, > 26 µM.
Turning to `COc1ccc(C(=O)C(Br)N=[N+]=[N-])cc1OC` (stereo unspecified), the EC50 in the assay on Plasmodium falciparum [1] is > 7.51 µM; in the assay with HepG2 it was > 13 µM; in the assay with Raji, > 13 µM; in the assay on Plasmodium falciparum [2], > 7.51 µM; in the assay with BJ it was > 13 µM; in the assay with HEK293 it was > 13 µM.
